Results as given in article PMC12042115 (mLife, 2025).

Legend:
Mtb ClpP1P2 = Mtb ClpP1P2 (Mycobacterium tuberculosis, UniProt P9WPC3+P9WPC5); experiment: k obs/[I] determination from progress curves; type: biochemical; details: no pre‐incubation, 50 nM ClpP1P2, 200 µM substrate
Protocol: 10 µM ClpP1P2 was pre‐incubated with 10 µM GDI‐5755 or DMSO solvent for 60 min at room temperature. To induce the formation of the [EI] complex, 0.5 mM Bz‐HT was also added. The mixture was diluted 100‐, 200‐, or 400‐fold to a 50 µl final volume with the peptidase reaction buffer and 20 μM substrate to start the jump dilution experiment. Fluorescence was recorded every 5 min continuously over a 220‐min course. To determine the k obs of the competitive inhibitor, the compound was dispended into a black 384‐well plate in a twofold concentration gradient from 20 µM to 0.5 µM. Without pre‐incubation, the other components (50 nM ClpP1P2, 200 µM substrate, and 0.5 mM Bz‐HT in the PIPES buffer as above) were added like in the peptidase degradation assay. The progress was monitored by continuously recording the fluorescence readouts. The fluorescence vs reaction time in seconds was fitted into Equation (2) using GraphPad Prism 10. (2) [P]=νst+νi−νs/kobs[1−exp(−kobst)] where P represents the product concentration, v s is the steady‐state reaction rate (0 in this case), v i is the initial rate, t is a time point, and k obs is the first‐order rate constant for onset of inhibition. The k obs values obtained were plotted against the inhibitor concentration and fitted into linear regression to yield k obs/[I] values as the slope, indicating the inhibition potency of the compound.

[1] = tested on: ClpP1(7‐200) ClpP2(16‐214) enzyme complex; experiment: Intact protein MS; type: binding, Mycobacterium tuberculosis; details: 100 μM compound, 10 μM enzyme, 1 h
Protocol: 10 μM of the ClpP1(7‐200) ClpP2(16‐214) enzyme complex was incubated with DMSO (as negative control) and 100 μM GDI‐5755 separately in 30 mM PIPES buffer only at room temperature in a final reaction volume of 40 μl. After 1 h of incubation, the samples were sent to a service lab at Peking University for a Matrix‐Assisted Laser Desorption/Ionization (MALDI) Time‐of‐Flight (TOF) MS analysis.

Mtb ClpP1P2, sequence (P9WPC3 16-214, one chain of several): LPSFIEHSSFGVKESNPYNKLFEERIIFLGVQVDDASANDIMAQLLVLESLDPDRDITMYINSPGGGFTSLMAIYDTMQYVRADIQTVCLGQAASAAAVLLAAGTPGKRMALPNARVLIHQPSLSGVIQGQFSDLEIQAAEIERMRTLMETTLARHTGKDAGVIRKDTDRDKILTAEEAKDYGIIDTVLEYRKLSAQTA

In the case of `O=C(Oc1ccc(Cl)cc1)c1ccc(N2CCOCC2)c([N+](=O)[O-])c1` [GDI‐5755], the “inactivation efficiency k obs/[I]” value (Mtb ClpP1P2) is reported as 178 ± 10.7 M⁻¹ s⁻¹, the “mass difference between new species and ClpP1” value [1] is reported as 234.30 Da and the “mass of ClpP2 after treatment” value [1] is reported as “unchanged”.
